Source: ChEMBL document CHEMBL1157398, “Ymf 1029A-E, preussomerin analogues from the fresh-water-derived fungus YMF 1.01029” (2008)

Assays:
Type in all cases: functional
[1] = system: Bursaphelenchus xylophilus; assay: Nematicidal activity against Bursaphelenchus xylophilus at 200 ug/ml after 24 hrs
[2] = system: Bursaphelenchus xylophilus; assay: Nematicidal activity against Bursaphelenchus xylophilus at 200 ug/ml after 48 hrs
[3] = system: Bursaphelenchus xylophilus; assay: Nematicidal activity against Bursaphelenchus xylophilus at 100 ug/ml after 24 hrs
[4] = system: Bursaphelenchus xylophilus; assay: Nematicidal activity against Bursaphelenchus xylophilus at 100 ug/ml after 48 hrs

## Oc1ccc2c3c1[C@@H](O)[C@H]1O[C@H]1[C@]31Oc3cccc4c3[C@](O2)(O1)[C@H](O)C[C@@H]4O
[1]
  Activity: 54.8%
[2]
  Activity: 62.3%
[3]
  Activity: 25.6%
[4]
  Activity: 35.5%

## O=C1CC[C@]23Oc4ccc(O)c5c4[C@](Oc4cccc1c42)(O3)[C@@H]1O[C@@H]1[C@@H]5O
[1]
  Activity: 47.9%
[2]
  Activity: 60.7%
[3]
  Activity: 33.7%
[4]
  Activity: 44.1%

## O=C1c2c(O)ccc3c2[C@@]2(Oc4cccc5c4[C@](O3)(O2)[C@H](O)C[C@@H]5O)[C@@H]2O[C@H]12
[1]
  Activity: 52.3%
[2]
  Activity: 64.2%
[3]
  Activity: 27.8%
[4]
  Activity: 39.6%

## O=C1CC[C@H](O)c2cc(O)cc(O)c21
[1]
  Activity: 51.2%
[2]
  Activity: 57.3%
[3]
  Activity: 23.7%
[4]
  Activity: 46.7%

## O=C1C[C@@H](O)[C@]23Oc4ccc(O)c5c4[C@](Oc4cccc1c42)(O3)[C@@H]1O[C@@H]1[C@@H]5O
[1]
  Activity: 56.7%
[2]
  Activity: 70.3%
[3]
  Activity: 45.2%
[4]
  Activity: 66.4%

## O=C1CCC(O)c2cccc(O)c21 (racemic) [4,8-DIHYDROXY-1-TETRALONE]
[1]
  Activity: 53.4%
[2]
  Activity: 58.3%
[3]
  Activity: 34.7%
[4]
  Activity: 43.8%

## CO[C@@H]1CC(=O)c2cccc3c2[C@@]12Oc1ccc(O)c4c1[C@](O3)(O2)[C@@H]1O[C@@H]1[C@@H]4O [PREUSSOMERIN C]
[1]
  Activity: 59.3%
[2]
  Activity: 78.6%
[3]
  Activity: 50.2%
[4]
  Activity: 67.4%

## O=C1C=C[C@]23Oc4ccc(O)c5c4[C@](Oc4cccc1c42)(O3)[C@@H]1O[C@@H]1[C@@H]5O [PREUSSOMERIN D]
[1]
  Activity: 60.4%
[2]
  Activity: 83.7%
[3]
  Activity: 53.8%
[4]
  Activity: 76.5%
